By IC50 is commonly meant the concentration at which inhibition is half-maximal. Broadly, the MIC is the least concentration at which growth counts as inhibited.

Experiment [1] has as its system Escherichia coli. Briefly: Antibacterial activity against wild type Escherichia coli ATCC 25922 assessed as reduction in bacterial growth measured after 16 to 20 hrs by CLSI-based microbroth dilution method. In kind it is functional, organism-based. In general terms: In broth dilution the organism is exposed to a series of concentrations in liquid medium.
Experiment [2] has as its system Escherichia coli. Briefly: Antibacterial activity against Escherichia coli assessed as reduction in bacterial growth incubated for 24 hrs by broth micro-dilution method. It counts as functional.
Another experiment relates to Enterobacter cloacae. The experiment can be described thus: Antibacterial activity against Enterobacter cloacae assessed as reduction in bacterial growth by broth microdilution method. It counts as functional.
Another experiment relates to Klebsiella pneumoniae. Briefly: Antibacterial activity against Klebsiella pneumoniae assessed as reduction in bacterial growth by broth microdilution method. In kind it is functional.
In experiment [3] the test system is Acinetobacter baumannii. Briefly: Antibacterial activity against Acinetobacter baumannii assessed as reduction in bacterial growth by broth microdilution method. In kind it is functional.
The next experiment has as its system Pseudomonas aeruginosa. The experiment can be described thus: Antibacterial activity against Pseudomonas aeruginosa ATCC 15442 assessed as bacterial growth inhibition measured after 18 hrs by CLSI protocol based two-fold serial microdilution method. It counts as functional.
Experiment [4] has as its system Escherichia coli. The experiment can be described thus: Antibacterial activity against wild type Escherichia coli assessed as reduction in microbial growth measured after 24 hrs by broth microdilution method.
Experiment [5] has as its system Escherichia coli. Described as above. The source holds these as a separate data set.
For experiment [6], the system named is Acinetobacter baumannii. The experiment can be described thus: Antibacterial activity against wild type Acinetobacter baumannii ATCC 17978 assessed as inhibition of microbial growth measured after 24 hrs by broth microdilution method. It counts as functional, organism-based. The following applies: ATCC 17978, 24 h.
For experiment [7], the target named is T1, MexAB/OprM (Pseudomonas aeruginosa (strain ATCC 15692 / DSM 22644 / CIP 104116 / JCM14847 / LMG 12228 / 1C / PRS 101 / PAO1)) (UniProt P52477+P52002+Q51487). Briefly: Inhibition of Pseudomonas aeruginosa MexAB-OprM P delta 6 pore assessed as minimal potentiating concentration for 4 fold reduction carbenicillin MIC. It counts as protein-complex assay.
Experiment [8] concerns the target T1, MexAB/OprM (Pseudomonas aeruginosa (strain ATCC 15692 / DSM 22644 / CIP 104116 / JCM14847 / LMG 12228 / 1C / PRS 101 / PAO1)). The experiment can be described thus: Inhibition of Pseudomonas aeruginosa MexAB-OprM P delta 6 pore assessed as minimal potentiating concentration for 4 fold reduction cefotaxime MIC. In kind it is protein-complex assay.
Experiment [9] has the same target. Briefly: Inhibition of Pseudomonas aeruginosa MexAB-OprM P delta 6 pore assessed as minimal potentiating concentration for 4 fold reduction Levofloxacin MIC. In kind it is protein-complex assay.
Experiment [10] shares this target. The experiment can be described thus: Inhibition of Pseudomonas aeruginosa MexAB-OprM P delta 6 pore assessed as minimal potentiating concentration for 4 fold reduction ciprofloxacin MIC. In kind it is protein-complex assay.
For experiment [11] the target is unchanged. The experiment can be described thus: Inhibition of Pseudomonas aeruginosa MexAB-OprM P delta 6 pore assessed as minimal potentiating concentration for 4 fold reduction novobiocin MIC. In kind it is protein-complex assay.
The subject of experiment [12] is Escherichia coli. Briefly: Antibacterial activity against wild type Escherichia coli assessed as reduction in bacterial growth inhibition incubated for 24 hrs by broth microdilution method. It counts as functional, organism-based.

Values after ≈ are worked out from the molar mass of the structure shown. A value given as a limit tells only on which side of the number the result lay.

For `O=C1O[C@@H](CO)CN1c1ccc(-c2ccccc2)c(F)c1`, in the experiment with Escherichia coli [1], the IC50 stood at 13.5 µM. For `Cc1cc(=O)n(C)c2c3c4c(cc12)c(C)cc(=O)n4C(CN)CO3` (configuration not stated), the minimal inhibitory concentration (MIC) in the experiment with Escherichia coli [2] came out at 0.5 µg/mL (≈ 1.54 µM); in the experiment with Enterobacter cloacae it was 0.5 µg/mL (≈ 1.54 µM); with Klebsiella pneumoniae, 1 µg/mL (≈ 3.07 µM); in the experiment on Acinetobacter baumannii [3], 2 µg/mL (≈ 6.15 µM); in the experiment with Pseudomonas aeruginosa, 16 µg/mL (≈ 49.2 µM).

Take `Cc1c(CNCCCCCCCCNC(=N)N)cc(-c2ccc(Cl)cc2)n1-c1ccc(Cl)cc1`: the MIC was determined as 8 µg/mL (≈ 16 µM) in the experiment on Escherichia coli [2], 16 µg/mL (≈ 32 µM) with Klebsiella pneumoniae, 8 µg/mL (≈ 16 µM) with Acinetobacter baumannii [3] and 64 µg/mL (≈ 128 µM) in the experiment with Pseudomonas aeruginosa. On to `CSCc1ccc(N2C[C@H](CO)OC2=O)cc1F`, for which the half-inhibitory concentration (IC50) with Escherichia coli [4] stood at 59 µM. `O=C1O[C@@H](CO)CN1c1ccc(-c2cccc(CO)c2)c(F)c1`: in the experiment on Escherichia coli [1], the concentration for half-maximal inhibition (IC50) amounted to 13.5 µM.

For the compound `C[n+]1ccccc1-c1ccc(-c2ccc(N3C[C@H](CO)OC3=O)cc2F)cc1`, the IC50 in the experiment with Escherichia coli [5] is 15.4 µM. For the compound `Cc1c(CN(C)C(=O)/C=C/c2cnc3c(c2)CCC(=O)N3)oc2ccccc12` [AFN-1252], the MIC in the experiment with Escherichia coli [2], in the experiment on Enterobacter cloacae, in the experiment with Klebsiella pneumoniae, in the experiment on Acinetobacter baumannii [3] and in the experiment with Pseudomonas aeruginosa was more than 32 µg/mL each time. Consider `Cc1c(CNC2CCC(N)CC2)cc(-c2ccc(Cl)cc2)n1-c1ccc(Cl)cc1` (configuration not stated), for which the MIC in the experiment with Escherichia coli [2] turned out to be 8 µg/mL (≈ 18.7 µM); in the experiment with Klebsiella pneumoniae, 16 µg/mL (≈ 37.3 µM); with Acinetobacter baumannii [3], 16 µg/mL (≈ 37.3 µM); in the experiment with Pseudomonas aeruginosa it was 32 µg/mL (≈ 74.7 µM). For `O=C1O[C@@H](CO)CN1c1ccc(-c2ccc(-c3ccccn3)cc2)c(F)c1`, the IC50 with Escherichia coli [1] was 13.5 µM.

`C[n+]1ccc(-c2ccc(-c3ccc(N4C[C@H](CO)OC4=O)cc3F)cc2)cc1`: the IC50 in the experiment on Escherichia coli [5] was determined as 15.4 µM. Take `O=C1O[C@@H](CO)CN1c1ccc(-c2ccc(CO)cc2)c(F)c1`: in the experiment on Escherichia coli [1], the IC50 is 13.5 µM. As for `O=C1O[C@@H](CO)CN1c1ccc(-c2cc(Cl)cc(Cl)c2)c(F)c1`, the IC50 in the experiment on Escherichia coli [4] came to 59 µM.

Turning to `CC(C)[n+]1ccc(-c2ccc(N3C[C@H](CO)OC3=O)cc2F)cc1`, the IC50 in the experiment on Escherichia coli [1] is 13.5 µM.

Consider `Cc1c(CNC2CCCCC2)cc(-c2ccc(Cl)cc2)n1-c1ccc(Cl)cc1`, for which the MIC is more than 128 µg/mL with Escherichia coli [2], more than 128 µg/mL in the experiment on Klebsiella pneumoniae, 64 µg/mL (≈ 155 µM) in the experiment on Acinetobacter baumannii [3] and more than 128 µg/mL in the experiment on Pseudomonas aeruginosa.

Take `O=C1O[C@@H](CO)CN1c1ccc(-c2ccnc(N3CCCC3)c2)c(F)c1`: the IC50 with Acinetobacter baumannii [6] turned out to be 19 µM. In the case of `CC(O)c1ccc(OCc2ccc(N3C[C@H](CO)OC3=O)cc2F)cc1` (some centres not stated), in the experiment with Escherichia coli [4], the IC50 stood at 59 µM. Regarding `Nc1cccc(-c2ccc(N3C[C@H](CO)OC3=O)cc2F)n1`, the IC50 in the experiment on Escherichia coli [4] amounted to 59 µM. `C[n+]1ccc2cc(-c3ccc(N4C[C@H](CO)OC4=O)cc3F)ccc2c1`: the IC50 in the experiment with Escherichia coli [5] was 15.4 µM. With `Cc1c(CN(C)C(=O)/C=C/c2cnc3c(c2)CC(N)C(=O)N3)oc2ccccc12` (configuration not stated), the MIC in the experiment with Escherichia coli [2] was 4 µg/mL (≈ 10.2 µM); with Enterobacter cloacae it was 8 µg/mL (≈ 20.5 µM); in the experiment with Klebsiella pneumoniae it was 8 µg/mL (≈ 20.5 µM); in the experiment with Acinetobacter baumannii [3], 4 µg/mL (≈ 10.2 µM); in the experiment with Pseudomonas aeruginosa, more than 64 µg/mL.

With `O=C1O[C@@H](CO)CN1c1ccc(-c2ccc(SC(F)(F)F)cc2)c(F)c1`, in the experiment on Escherichia coli [1], the IC50 was determined as 13.5 µM. Turning to `O=Cc1ccc(-c2ccc(N3C[C@H](CO)OC3=O)cc2F)cc1`, the IC50 with Escherichia coli [1] was 13.5 µM. As for `CCC[n+]1ccc(-c2ccc(N3C[C@H](CO)OC3=O)cc2F)cc1`, the IC50 with Escherichia coli [5] was found to be 15.4 µM. Take `COCc1ccc(N2C[C@H](CO)OC2=O)cc1F`: the IC50 with Escherichia coli [4] amounted to 59 µM. Take `O=C(/C=C/c1ccccc1Cl)Nc1ccc(C2=NCCN2)c(C2=NCCN2)c1`: the MEC in [7] was 100 µM; in experiment [8] it was 100 µM; in [9], 6.25 µM; in experiment [10] it was 12.5 µM; in [11], 3.12 µM. `N/C(=N/O)c1ccc(-c2ccc(N3C[C@H](CO)OC3=O)cc2F)cc1`: the IC50 in the experiment with Escherichia coli [1] was 13.5 µM.

On to `COC(=O)c1cncc(-c2ccc(N3C[C@H](CO)OC3=O)cc2F)c1`, for which the IC50 in the experiment with Acinetobacter baumannii [6] was 19 µM. For the compound `O=C(/C=C/c1ccccc1Cl)Nc1ccc(C2=NCCN2)cc1`, the MEC in [7], in experiment [8], in experiment [9], in experiment [10] and in experiment [11] was more than 100 µM throughout. `O=C1O[C@@H](CO)CN1c1ccc(-c2cc[n+](Cc3ccccc3)cc2)c(F)c1`: in the experiment on Escherichia coli [5], the IC50 stood at 15.4 µM.

On to `CC(C)c1ccc(-c2ccc(N3C[C@H](CO)OC3=O)cc2F)c(C(C)C)c1`, for which the IC50 with Escherichia coli [12] worked out at 23 µM. As for `C[n+]1cccc(-c2ccc(-c3ccc(N4C[C@H](CO)OC4=O)cc3F)cc2)c1`, the IC50 in the experiment on Escherichia coli [5] came out at 15.4 µM. In the case of `O=C1O[C@@H](CO)CN1c1ccc(-c2ccccc2OC(F)(F)F)c(F)c1`, the IC50 in the experiment on Escherichia coli [12] was 23 µM. Turning to `CC[n+]1ccc(-c2ccc(N3C[C@H](CO)OC3=O)cc2F)cc1`, in the experiment with Escherichia coli [5], the IC50 was 15.4 µM. As to `COC(=O)c1ccccc1-c1ccc(N2C[C@H](CO)OC2=O)cc1F`, the IC50 in the experiment on Escherichia coli [12] is 23 µM.

Values taken from ChEMBL document CHEMBL5532669, “Guiding the Way: Traditional Medicinal Chemistry Inspiration for Rational Gram-Negative Drug Design” (J Med Chem, 2024).
